In US4681872A (priority 1985, dated 1987) one finds MIC and serum half-life data, which are given here for 2 compounds.

Series [1] concerns Bact. fragilis 784. The following applies: BHI agar, 35°-37° C., 20-24 hours.
Series [2] deals with Pseudomonas cepacia 2961. The series is described as follows: antimicrobial spectrum, agar dilution MIC. The following applies: BHI agar, 35°-37° C., 20-24 hours. A general note: Agar dilution tests growth on a series of plates holding different concentrations.
The subject of series [3] is Strep. pyogenes M79061-98. As to the kind of experiment: antimicrobial spectrum, agar dilution MIC. The class given is cell-based. The conditions noted are these: BHI agar, 35°-37° C., 20-24 hours.
The test system of series [4] is Providencia stuartii CMX 640. The series is described as follows: antimicrobial spectrum, agar dilution MIC. The series is classed as cell-based. The conditions noted are these: BHI agar, 35°-37° C., 20-24 hours.
Series [5] concerns Pseudomonas aeruginosa K799/WT. The series is described as follows: antimicrobial spectrum, agar dilution MIC. The conditions noted are these: BHI agar, 35°-37° C., 20-24 hours.
Series [6] has as its system E. coli SS. The series is described as follows: antimicrobial spectrum, agar dilution MIC. The following applies: BHI agar, 35°-37° C., 20-24 hours.
Series [7] relates to Lactobacillus Casei ATCC 7469. The series is described as follows: antimicrobial spectrum, agar dilution MIC. The following applies: BHI agar, 35°-37° C., 20-24 hours.
Series [8] deals with Strep. faecium ATCC 8043. The series is described as follows: antimicrobial spectrum, agar dilution MIC. The series is classed as cell-based. The following applies: BHI agar, 35°-37° C., 20-24 hours.
The test system of series [9] is Micrococcus luteus 9341. As to the kind of experiment: antimicrobial spectrum, agar dilution MIC. The conditions noted are these: BHI agar, 35°-37° C., 20-24 hours.
For series [10], the system named is Micrococcus luteus 4698. The series is described as follows: antimicrobial spectrum, agar dilution MIC. The following applies: BHI agar, 35°-37° C., 20-24 hours.
Series [11] deals with Bact. fragilis UC-2. The conditions noted are these: BHI agar, 35°-37° C., 20-24 hours.
The test system of series [12] is Pseudomonas aeruginosa 5007. As to the kind of experiment: antimicrobial spectrum, agar dilution MIC. The conditions noted are these: BHI agar, 35°-37° C., 20-24 hours.
Series [13] deals with Pseudomonas aeruginosa BMH10. The series is described as follows: antimicrobial spectrum, agar dilution MIC. The conditions noted are these: BHI agar, 35°-37° C., 20-24 hours.
For series [14] the following is noted: human, in vivo; cited from earlier work.
The subject of series [15] is Bact. fragilis 784. As to the kind of experiment: microbe, parasite or virus in culture. The conditions noted are these: Bacteroides fragilis.

In brackets after ≈: the same amount, converted by molar mass. Like-named read-outs stand apart in the source and are kept apart here.

`CCC1OC(=O)C(C)C(OC2CC(C)(OC)CC(C)O2)C(C)C(OC2OC(C)CC(N(C)C)C2O)C(C)(O)CC(C)C(=O)C(C)C2OC(=O)OC12C` (stereo not drawn) [4"-deoxyerythromycin A 11,12-carbonate]: the MIC result in [1] is “.4 µg/mL”; in [2] it was 50 µg/mL (≈ 67.2 µM); in series [3], “.12 µg/mL”; in [4] it was 100 µg/mL (≈ 134 µM); in series [5], 100 µg/mL (≈ 134 µM); in series [6], “.2 µg/mL”. In addition, the MIC result was “.01 µg/mL” in series [7]; “.05 µg/mL” in [8]; “.02 µg/mL” in [9]; “.1 µg/mL” in [10]; 1.6 µg/mL (≈ 2.15 µM) in [11]; 100 µg/mL (≈ 134 µM) in [12]. The MIC in series [13] worked out at 50 µg/mL (≈ 67.2 µM).

Turning to `CC[C@H]1OC(=O)[C@H](C)[C@@H](O[C@H]2C[C@@](C)(OC)[C@@H](O)[C@H](C)O2)[C@H](C)[C@@H](O[C@@H]2O[C@H](C)C[C@H](N(C)C)[C@H]2O)[C@](C)(O)C[C@@H](C)C(=O)[C@H](C)[C@@H](O)[C@]1(C)O` [Erythromycin A, reference compound], in series [14], the serum half-life is 2 to 3 h. In series [15], the MIC came to 1.6 µg/mL (≈ 2.18 µM).
